Where two headings read alike, the source gives them in different places.
What was measured:
corn (Zea mays) = test: Test A postemergence; type: in vivo; settings: Zea mays, post-emergence, 240 h; for plant injury at 125 g/ha / Corn plant response rating (crop injury, 0 = no effect, 100 = complete kill) at 125 g/ha: 125 g ai/ha; for plant injury at 125 g/ha / plant injury at 500 g/ha: postemergence; for Corn plant response rating (crop injury, 0 = no effect, 100 = complete kill) at 125 g/ha: Postemergence, visual injury after approximately 10 d, 0 to 100 scale where 0 is no effect and 100 is complete control; for plant injury at 500 g/ha: 500 g ai/ha, 0 to 100 scale, 0 is no effect, 100 is complete control
Outline: (§1)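 Greenhouse, ~10 d after spray; visual injury vs untreated controls, 0 = no effect, 100 = complete control. Preemergence: directed soil spray over planted seeds. Postemergence: plants 2–10 cm, 1–2 leaf stage. Loam/sand blend. Compound in non-phytotoxic solvent with surfactant.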

[1] = tested on: blackgrass (Alopecurus myosuroides); test: Test A postemergence; type: in vivo; settings: Alopecurus myosuroides, post-emergence, 240 h; for pest or weed control at 125 g/ha: 125 g ai/ha; for pest or weed control at 500 g/ha: 500 g ai/ha, 0 to 100 scale, 0 is no effect, 100 is complete control
Outline: as §1

[2] = tested on: pigweed (Amaranthus retroflexus); test: Test A postemergence; type: in vivo; settings: Amaranthus retroflexus, post-emergence, 240 h; for pest or weed control at 125 g/ha: 125 g ai/ha; for pest or weed control at 500 g/ha: 500 g ai/ha, 0 to 100 scale, 0 is no effect, 100 is complete control
Outline: as §1

[3] = tested on: ryegrass, Italian (Italian ryegrass, Lolium multiflorum); test: Test A postemergence; type: in vivo; settings: Lolium multiflorum, post-emergence, 240 h; for pest or weed control at 125 g/ha: 125 g ai/ha; for pest or weed control at 500 g/ha: 500 g ai/ha, 0 to 100 scale, 0 is no effect, 100 is complete control
Outline: as §1

[4] = tested on: wheat (Triticum aestivum); test: Test A postemergence; type: in vivo; settings: Triticum aestivum, post-emergence, 240 h; for plant injury at 125 g/ha: 125 g ai/ha; for plant injury at 500 g/ha: 500 g ai/ha, 0 to 100 scale, 0 is no effect, 100 is complete control
Outline: as §1

[5] = tested on: Galium (catchweed bedstraw, Galium aparine); test: Test A postemergence; type: in vivo; settings: Galium, post-emergence, 240 h; for pest or weed control at 125 g/ha: 125 g ai/ha; for pest or weed control at 500 g/ha: 500 g ai/ha, 0 to 100 scale, 0 is no effect, 100 is complete control
Outline: as §1

[6] = visual injury rating after approximately 10 d, read-out: Corn plant response rating (0 to 100 scale, 0 no effect, 100 complete control)
[7] = postemergence, visual injury rating after approximately 10 d, read-out: Blackgrass plant response rating (0 to 100 scale, 0 no effect, 100 complete control)
[8] = postemergence, visual injury rating after approximately 10 d, read-out: Pigweed plant response rating (0 to 100 scale, 0 no effect, 100 complete control)
[9] = postemergence, visual injury rating after approximately 10 d, read-out: Ryegrass, Italian plant response rating (0 to 100 scale, 0 no effect, 100 complete control)
[10] = postemergence, visual injury rating after approximately 10 d, read-out: Wheat plant response rating (0 to 100 scale, 0 no effect, 100 complete control)
[11] = postemergence, visual injury rating after approximately 10 d, read-out: Galium plant response rating (0 to 100 scale, 0 no effect, 100 complete control)
[12] = Postemergence, visual injury after approximately 10 d, 0 to 100 scale where 0 is no effect and 100 is complete control, read-out: Plant response rating, Blackgrass
[13] = Postemergence, visual injury after approximately 10 d, 0 to 100 scale where 0 is no effect and 100 is complete control, read-out: Plant response rating, Pigweed
[14] = Postemergence, visual injury after approximately 10 d, 0 to 100 scale where 0 is no effect and 100 is complete control, read-out: Plant response rating, Ryegrass, Italian
[15] = Postemergence, visual injury after approximately 10 d, 0 to 100 scale where 0 is no effect and 100 is complete control, read-out: Plant response rating, Wheat
[16] = Postemergence, visual injury after approximately 10 d, 0 to 100 scale where 0 is no effect and 100 is complete control, read-out: Plant response rating, Galium
[17] = visual injury on 0 to 100 scale (0 no effect, 100 complete control), approx. 10 d, read-out: Corn plant response rating
[18] = read-out: Corn plant response rating
[19] = postemergence, visual injury on 0 to 100 scale (0 no effect, 100 complete control), approx. 10 d, read-out: Blackgrass plant response rating
[20] = postemergence, read-out: Blackgrass plant response rating
[21] = postemergence, visual injury on 0 to 100 scale (0 no effect, 100 complete control), approx. 10 d, read-out: Pigweed plant response rating
[22] = postemergence, read-out: Pigweed plant response rating
[23] = postemergence, visual injury on 0 to 100 scale (0 no effect, 100 complete control), approx. 10 d, read-out: Ryegrass, Italian plant response rating
[24] = postemergence, read-out: Ryegrass, Italian plant response rating
[25] = postemergence, visual injury on 0 to 100 scale (0 no effect, 100 complete control), approx. 10 d, read-out: Wheat plant response rating
[26] = postemergence, read-out: Wheat plant response rating
[27] = postemergence, visual injury on 0 to 100 scale (0 no effect, 100 complete control), approx. 10 d, read-out: Galium plant response rating
[28] = postemergence, read-out: Galium plant response rating

melting point | Structure (SMILES) | plant injury at 125 g/ha (corn (Zea mays); [6]) | pest or weed control at 125 g/ha [1, 7] | pest or weed control at 125 g/ha [2, 8] | pest or weed control at 125 g/ha [3, 9] | plant injury at 125 g/ha [4, 10] | pest or weed control at 125 g/ha [5, 11] | Corn plant response rating (crop injury, 0 = no effect, 100 = complete kill) at 125 g/ha (corn (Zea mays)) | pest or weed control at 125 g/ha [1, 12] | pest or weed control at 125 g/ha [2, 13] | pest or weed control at 125 g/ha [3, 14] | plant injury at 125 g/ha [4, 15] | pest or weed control at 125 g/ha [5, 16] | plant injury at 125 g/ha (corn (Zea mays); [17]) | plant injury at 500 g/ha (corn (Zea mays); [18]) | pest or weed control at 125 g/ha [1, 19] | pest or weed control at 500 g/ha [1, 20] | pest or weed control at 125 g/ha [2, 21] | pest or weed control at 500 g/ha [2, 22] | pest or weed control at 125 g/ha [3, 23] | other results
137 to 140 °C | COc1cccc(C2CN(C)C(=O)C2C(=O)Nc2cccc(F)c2F)c1 (stereo not drawn) [Compound 886] | 40% | 20% | 0% | 20% | 0% | 0% |  |  |  |  |  |  |  |  |  |  |  |  |  | 
96 to 100 °C | CCc1cc([C@H]2CNC(=O)[C@@H]2C(=O)Nc2ccccc2F)cs1 [Compound 913] | 0% | 0% | 0% | 0% | 0% | 30% |  |  |  |  |  |  |  |  |  |  |  |  |  | 
115 to 119 °C | O=C1NC[C@H](c2cc(C(F)(F)F)ccn2)[C@H]1C(=O)Nc1ccccc1F [Compound 948] |  |  |  |  |  |  | 0% | 0% | 0% | 0% | 0% | 0% |  |  |  |  |  |  |  | 
174 to 176 °C | Cc1ccc([C@H]2CCNC(=O)[C@@H]2C(=O)Nc2cccc(F)c2F)cc1 [Compound 973] |  |  |  |  |  |  | 0% | 60% | 0% | 20% | 0% | 50% |  |  |  |  |  |  |  | 
142 to 146 °C | CN1CC(c2cccc(Br)c2)C(C(=O)Nc2ccccc2F)C1=O (stereo not drawn) [Compound 1132] |  |  |  |  |  |  |  |  |  |  |  |  | 60% | 80% | 30% | 50% | 0% | 0% | 0% | pest or weed control at 500 g/ha [3, 24]: 30%; plant injury at 125 g/ha [4, 25]: 30%; plant injury at 500 g/ha [4, 26]: 70%; pest or weed control at 125 g/ha [5, 27]: 0%; pest or weed control at 500 g/ha [5, 28]: 30%
133 to 137 °C | O=C1NC[C@H](c2ccc(F)c(OC(F)(F)C(F)(F)Br)c2)[C@H]1C(=O)Nc1ccccc1F [Compound 1134] |  |  |  |  |  |  |  |  |  |  |  |  | 20% | 20% | 20% | 50% | 0% | 20% | 20% | pest or weed control at 500 g/ha [3, 24]: 20%; plant injury at 125 g/ha [4, 25]: 0%; plant injury at 500 g/ha [4, 26]: 20%; pest or weed control at 125 g/ha [5, 27]: 20%; pest or weed control at 500 g/ha [5, 28]: 70%

Source: patent US12077503B2, “Substituted cyclic amides and their use as herbicides” (FMC CORPORATION, priority 2015, dated 2024)
